We go through ten compounds from ChEMBL document CHEMBL1201862, “PubChem BioAssay data set” (2004).

Some test systems named below: RPMI-8226; NCI-H226; MOLT-4; SNB-75; NCI-H460; CAKI-1; SW-620; HCT-116; SK-MEL-2; SNB-19; HOP-62; SK-MEL-28; NCI/ADR-RES; HL-60; UO-31; T47D; NCI-H522; HCC 2998; SR.
Assay in all cases: growth of human tumour cells (NCI), 48 h

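Five concentrations, 48 hours, 96-well plates. GI50 marks 50% less growth.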 Activity calls are given as the source filed them. Cut-off read from the data, not from the text of the source: active = GI50 up to about 1.1 µM and inactive = higher.

Turning to `O=C(O)Cc1ccc([N+](=O)[O-])cc1[N+](=O)[O-]`, the GI50 in the assay on RPMI-8226, in the assay with NCI-H226, in the assay with MOLT-4, with SNB-75, in the assay with NCI-H460 and with CAKI-1 was > 100 µM (inactive) each time. In addition, the GI50 with SW-620, in the assay on HCT-116, with SK-MEL-2, in the assay with SNB-19, in the assay with HOP-62 and in the assay with SK-MEL-28 was > 100 µM (inactive) each time. Further, the GI50 in the assay on NCI/ADR-RES, in the assay with HL-60, in the assay on UO-31, in the assay on T47D and in the assay with NCI-H522 was > 100 µM (inactive) each time.
In the case of `NC(=S)C1=C(N)Oc2c(c(=O)oc3ccccc23)C1c1ccc(Br)cc1` (centres undefined), the GI50 in the assay with SNB-75 is 82.6 µM (inactive); in the assay with NCI-H460, > 100 µM (inactive); with CAKI-1 it was > 100 µM (inactive); in the assay on SW-620, > 100 µM (inactive); with HCT-116, > 100 µM (inactive); in the assay with SK-MEL-2, > 100 µM (inactive). The GI50 in the assay with HCC 2998 is > 100 µM (inactive); in the assay with SNB-19, > 100 µM (inactive); in the assay on HOP-62, > 100 µM (inactive); in the assay on SK-MEL-28, > 100 µM (inactive); in the assay on NCI/ADR-RES, > 100 µM (inactive); in the assay on HL-60 it was 50.8 µM (inactive). Also, the GI50 in the assay on UO-31 is > 100 µM (inactive); with SR it was 1.61 µM (inactive); with NCI-H522, 74.8 µM (inactive).
For the compound `CN1N(c2ccccc2)C(=O)C2=NC=C(C#N)C(=N)C21C` (centres undefined), the GI50 in the assay on RPMI-8226, in the assay on NCI-H226, in the assay with MOLT-4, in the assay on SNB-75, in the assay on NCI-H460 and in the assay with CAKI-1 was > 100 µM (inactive) throughout. In addition, the GI50 in the assay on SW-620, with HCT-116, with SK-MEL-2, with HCC 2998, in the assay with SNB-19 and in the assay with SK-MEL-28 was > 100 µM (inactive) each time. Moreover, the GI50 in the assay with NCI/ADR-RES was > 100 µM (inactive); in the assay on UO-31 it was > 100 µM (inactive); in the assay on SR, 19.8 µM (inactive); in the assay on NCI-H522, > 100 µM (inactive).
As to `N#CC1(C2CC(=O)N(c3ccccc3)C2=O)CCCCC1=O` (centres undefined), the GI50 in the assay on RPMI-8226, in the assay with NCI-H226, with MOLT-4, with SNB-75, in the assay on NCI-H460 and with SW-620 was > 100 µM (inactive) each time. The GI50 with HCC 2998 is 0.104 µM (active); in the assay on SNB-19 it was > 100 µM (inactive); in the assay with SK-MEL-28, > 100 µM (inactive); in the assay on HL-60, > 100 µM (inactive); in the assay with UO-31, > 100 µM (inactive); in the assay with SR, > 100 µM (inactive).
Take `S=C(/N=c1/sc(Nc2ccccc2)nc2sc3c(c12)CCCC3)Nc1ccccc1`: the GI50 in the assay with RPMI-8226 was 62.2 µM (inactive); in the assay with NCI-H226, > 62.5 µM (inactive); in the assay on MOLT-4 it was > 62.5 µM (inactive); with NCI-H460, > 62.5 µM (inactive); in the assay with CAKI-1 it was > 62.5 µM (inactive); in the assay with SW-620 it was > 62.5 µM (inactive). Besides, the GI50 in the assay with HCT-116, with SK-MEL-2, with HCC 2998, in the assay on SNB-19, in the assay with HOP-62 and with SK-MEL-28 was > 62.5 µM (inactive) throughout. Besides, the GI50 with HL-60, with UO-31, in the assay with SR and in the assay on NCI-H522 was > 62.5 µM (inactive) throughout.
On to `Cc1c(-c2ccccc2)c(=O)oc2ccc(Cl)cc12`, for which the GI50 with RPMI-8226 is > 100 µM (inactive); with NCI-H226 it was > 100 µM (inactive); in the assay on MOLT-4, > 100 µM (inactive); with SNB-75, 16.1 µM (inactive); with NCI-H460 it was 70.5 µM (inactive); in the assay with SW-620, > 100 µM (inactive). For the same compound, the GI50 in the assay with HCT-116 was 38.1 µM (inactive); in the assay on SK-MEL-2, > 100 µM (inactive); in the assay on HCC 2998, > 100 µM (inactive); with SNB-19, 63 µM (inactive); in the assay with HOP-62 it was 27.9 µM (inactive); in the assay on SK-MEL-28, > 100 µM (inactive). Moreover, the GI50 in the assay on HL-60 was > 100 µM (inactive); with UO-31 it was > 100 µM (inactive); in the assay on SR, > 100 µM (inactive); with NCI-H522, 33.7 µM (inactive).
`FC(F)(F)c1ccc(C2=N/S(c3ccccc3)=N\C(c3ccc(C(F)(F)F)cc3)=N/S(c3ccccc3)=N\2)cc1` (centres undefined): the GI50 in the assay on RPMI-8226, with MOLT-4, in the assay on SNB-75, with NCI-H460, in the assay with CAKI-1 and with SW-620 was > 100 µM (inactive) throughout. Further, the GI50 with HCT-116, with SK-MEL-2, with HCC 2998, in the assay with SNB-19, in the assay on SK-MEL-28 and with NCI/ADR-RES was > 100 µM (inactive) throughout. For the same compound, the GI50 with UO-31, with SR and in the assay with NCI-H522 was > 100 µM (inactive) in each case.
As to `Oc1cc(O)cc(-c2nc3cc(F)ccc3s2)c1`, the GI50 in the assay on RPMI-8226 was 18.5 µM (inactive); in the assay on NCI-H226 it was 25.8 µM (inactive); in the assay with NCI-H460 it was 22.8 µM (inactive); in the assay on CAKI-1, 25.5 µM (inactive); with SW-620 it was 38.1 µM (inactive); with HCT-116, 24.5 µM (inactive). The GI50 in the assay with SK-MEL-2 is 22.7 µM (inactive); in the assay on SNB-19, 23.7 µM (inactive); with SK-MEL-28, 48.8 µM (inactive); in the assay with NCI/ADR-RES it was 36.8 µM (inactive); in the assay with UO-31, 24 µM (inactive); in the assay on T47D, 17.5 µM (inactive). Besides, the GI50 in the assay on NCI-H522 was 18.7 µM (inactive).
Consider `Nc1nc2cc3nc(N)c(N)nc3cc2nc1N`, for which the GI50 was > 100 µM (inactive) in the assay on RPMI-8226; > 100 µM (inactive) in the assay on NCI-H226; 92.9 µM (inactive) in the assay on MOLT-4; > 100 µM (inactive) with SNB-75; > 100 µM (inactive) in the assay with NCI-H460; > 100 µM (inactive) in the assay with CAKI-1. The GI50 in the assay with SW-620 was > 100 µM (inactive); in the assay on HCT-116 it was 84.3 µM (inactive); in the assay with SK-MEL-2, > 100 µM (inactive); in the assay with HCC 2998 it was > 100 µM (inactive); in the assay on SNB-19 it was > 100 µM (inactive); with SK-MEL-28, > 100 µM (inactive). Further, the GI50 with NCI/ADR-RES was > 100 µM (inactive); in the assay on HL-60, 30.1 µM (inactive); in the assay with UO-31, > 100 µM (inactive); in the assay on SR, 71.8 µM (inactive); with NCI-H522, > 100 µM (inactive).
Regarding `O=C1C(Cl)=C(NCCN2CCOCC2)C(=O)c2ncccc21`, the GI50 in the assay with NCI-H226 is 2.1 µM (inactive); with MOLT-4, 1.51 µM (inactive); in the assay with SNB-75, 1.35 µM (inactive); in the assay with NCI-H460 it was 1.46 µM (inactive); with SW-620, 1.85 µM (inactive); in the assay on HCT-116, 1.82 µM (inactive). In addition, the GI50 in the assay with HCC 2998 was 1.47 µM (inactive); with SNB-19, 1.69 µM (inactive); with HOP-62 it was 2.12 µM (inactive); in the assay on SK-MEL-28, 1.84 µM (inactive); with UO-31, 1.65 µM (inactive); in the assay on T47D, 2.45 µM (inactive).
